Data as given in patent publication US7008949B2, “Heterocyclic compounds which inhibit leukocyte adhesion mediated by α4 integrins” (Elan Pharmaceuticals, Inc., priority 2003, dated 2006).

How the values were obtained:
α4β1 Integrin = target: T1, α4β1 Integrin (Homo sapiens, UniProt P05556+P13612); test: α4β1 Integrin Adhesion Assay: Jurkat cell adhesion to human plasma fibronectin; assay type: cell-based; conditions: Jurkat cells
T1 construct: endogenous in cells; host or cells: Jurkat cells
Procedure: 96 well plates (Costar 3590 EIA plates) were coated with human fibronectin (Gibco/BRL, cat #33016-023) at a concentration of 10 μg/mL overnight at 4° C. The plates were then blocked with a solution of bovine serum albumin (BSA; 0.3%) in saline. Jurkat™ cells (maintained in log phase growth) were labeled with Calcein AM according to the manufacturer's instructions, and suspended at a concentration of 2×10^6 cells/mL in Hepes/Saline/BSA. The cells were then exposed to test and control compounds for 30 minutes at room temperature before transfer to individual wells of the fibronectin coated plate. Adhesion was allowed to occur for 35 minutes at 37° C. The wells were then washed by gentle aspiration and pipetting with fresh saline. Fluorescence associated with the remaining adherent cells was quantified using a fluorescence plate reader at EX 485/EM 530.
Cell cultures were prepared by first splitting the stationary phase Jurkat™ cells at 1:10 on day one, and 1:2 on day two to perform assay on day 3. The cells split 1:10 on day one were split 1:4 on day 3 for a day 4 assay.
The assay plates were prepared by first making a working solution of Gibco/BRL Human Fibronectin (cat # 33016-023) in PBS++, at 10 μg/mL.
A Costar 3590 EIA plate was then coated with 50 μL/well for 2 hours at room temperature (thought it can also be left overnight at 4° C.). Finally the plate was asperated and blocked with Hepes/Saline Buffer, 100 μL/well, for 1 hour at RT followed by washing three times with 150 μL of PBS++.
Compound dilutions were accomplished by preparing 1:3 serial dilutions of compounds as follows. For each plate (4 compounds/plate) 600 μL were added to 4 Bio-Rad Titertubes in a Titertube rack. Enough compound was added to each appropriate tube to give a 2× concentration using methods well known in the art. Using Falcon Flexiplates, 100 μL of Hepes/Saline buffer or human serum were added to rows B through G. A multi-channel pipetter set to 180 μL was used to with four tips spaced evenly the pipetter. Each set of four tubes was mixed 5 times and 180 μL of 2× compound was transferred to the first column of each compound dilution in Row B, leaving Row A empty. 180 μL were added to the other wells in Row A. Serial dilutions were performed down the plate by transferring 50 μL to the next dilution and mixing 5 times, changing tips each time after mixing. Dilutions were stopped at Row F. Row G had no compound present.
A 20 μg/mL solution in Hepes/Saline buffer or human serum, of 21/6 antibody was the positive control and was set aside in a reagent trough to add to cell suspension plate.
The cell staining was accomplished by first harvesting the log-phase Jurkat™ cells by centrifugation in 50 mL tubes (1100 rpm for 5 minutes). The cells were resuspended in 50 mL PBS++, spun, and resuspend in 20 mL PBS++. The cells were stained by adding 20 μL of Calcein AM for 30 minutes R.T. The volume was brought to 50 mL with Hepes/Saline buffer and the cells were counted, spun, and resuspend to 2×10^6 cells/mL in Hepes/Saline buffer or human serum.
The compounds were incubated using the following procedure. In a new flexiplate, 65 μL of stained cells were added to Rows B through H. Then 65 μL of 2× compounds were added to the appropriate rows following the plate setup and mixed 3×. 65 μL of 2×-21/6 antibody were added to Row H and mixed 3×. Finally the plate was incubated at room temperature for 30 minutes.
Fibronectin adhesion was measured using a fluorescent plate reader at EX 485/EM 530 after the following work up procedure. After incubation, the cells were mixed 3× and 100 μL were transferred to the Fibronectin coated plates and incubated at 37° C. for about 35 minutes. Each plate was washed, row by row, by gently pipetting 100 μL of R.T. PBS++ down the sides of the wells and turning the plate 90 degrees to aspirate. This procedure was repeated for a total of 3 washes. Each well was filled with 100 μL after washing by pipetting down the side of the well. […]

[1] = Cassette dosing and serum analysis for determination of oral bioavailability; assay type: in vivo, rat; conditions: male SD rats, oral cassette of 6 compounds, total dose 10 mg/kg, plasma at 4, 8, 12 h
Procedure: The oral bioavailability was screened by dosing rats with a cassette, i.e. mixture of 6 compounds per dosing solution. The cassette included 5 test articles and a standard compound, for a total dose of 10 mg/kg. Each compound/test article was converted to the sodium salt with equimolar 1 N NaOH and dissolved in water at 2 mg/mL. The cassette was prepared by mixing equal volumes of each of the six solutions. The cassette dosing solution was mixed well and then the pH was adjusted to 7.5–9. The dosing solution was prepared the day before the study and stirred overnight at room temperature.
Male Sprague Dawley (SD) rats from Charles River Laboratories, 6–8 weeks old were used in this screen. Rats were quarantined for at least one day and had continuous access to food and water. On the night before the administration of the cassette, the rats were fasted for approximately 16 h.
Four SD rats were assigned in each cassette. A single dose of the dosing solution was administered orally to each rat. The dosing volume (5 mL/kg) and time were recorded and rats were fed 2 h after dosing.
Blood samples were collected via cardiac puncture at the following time points: 4 h, 8 h and 12 h. Immediately prior to blood collection, rats were anesthetized with CO2 gas within 10–20 seconds. After the 12-hour samples were collected, the rats were euthanized via CO2 asphyxiation followed by cervical dislocation.
Blood samples were kept in heparinized microtainer tubes under sub-ambient temperature (4° C.) before they were processed. Blood samples were centrifuged (10000 rpm for 5 minutes) and plasma samples were removed and stored in a −20° C. freezer until analyzed for drug levels. Drug levels in the plasma were analyzed using the following protocol for direct plasma precipitation.
The in vivo plasma samples were prepared in a 1.5 mL 96-well plate, by adding, in order, 100 μL of the test plasma, 150 μL of methanol, followed by vortexing for 10–20 seconds. 150 μL of 0.05 ng/μL of an Internal Standard in acetonitrile were added and vortexed for 30 seconds.
The standard curve samples were prepared in a 1.5 mL 96-well plate, by adding, in order, 100 μL of control mouse plasma, followed by 150 μL of methanol and vortexing for 10–20 seconds. 150 μL of 0.05 ng/μL of an Internal Standard in acetonitrile were added and vortexed for 30 seconds. The samples were spiked with 0–200 ng (10 concentrations) of the compound of interest in 50% methanol to obtain a standard curve range of 0.5 ng/mL–2,000 ng/mL. Again, the sample was vortexed for 30 seconds.
The samples were then spun for 20–30 minutes at 3000 rpm in an Eppendorf microfuge before 80–90% of supernatant was transferred into a clean 96-well plate. The organic solvent was then evaporated until the samples were dry (under N2 at 40° C./30–60 min (ZymarkTurbovap)).
The residue was then dissolved in […] mobile phase (50% CH3OH/0.1% TFA). LC/MS/MS was then run using a PE-Sciex API-3000 triple quadurpole mass spectrometer (SN0749707), Perkin-Elmer, Series200auto-sampler, and shimadzu 10A pump. Acquisition was done with PE-Sciex Analyst (v1.1) and data analysis and quantification were accomplished using PE-Sciex Analyst (v1.1). A 5–50 μL sample volume was injected onto a reverse phase ThermoHypersil DASH-18 column (Keystone 2.0×20 mm, 5 μm, PN: 8823025-701) using a mobile phase of 25% CH3OH, 0.1% TFA-100% CH3OH, 0.1% TFA. The run time was about 8 minutes at a flow rate of about 300 μL/minutes.
The Area Under the Curve (AUC) was calculated using the linear trapezoidal rule from t=0 to the last sampling time tx (see Handbook of Basic Pharmacokinetics, Wolfgang A. Ritschel and Gregory L. Kearns, 5th ed, 1999). AUC^0→tx═S((Cn+Cn+1)/2))·(tn+1−tn)[(μg/mL)h]
In the case of the cassette dosing paradigm, samples at 4, 8 and 12 h post extravascular dosing, the AUC was calculated from t=0 to t=12 h.

[2] = IC50, Cell Adhesion to Human Plasma Fibronectin (With Human Serum), with human serum
[3] = IC50, Cell Adhesion to Human Plasma Fibronectin (Without the Human Serum), without human serum

T1 sequence (P13612 34-1032): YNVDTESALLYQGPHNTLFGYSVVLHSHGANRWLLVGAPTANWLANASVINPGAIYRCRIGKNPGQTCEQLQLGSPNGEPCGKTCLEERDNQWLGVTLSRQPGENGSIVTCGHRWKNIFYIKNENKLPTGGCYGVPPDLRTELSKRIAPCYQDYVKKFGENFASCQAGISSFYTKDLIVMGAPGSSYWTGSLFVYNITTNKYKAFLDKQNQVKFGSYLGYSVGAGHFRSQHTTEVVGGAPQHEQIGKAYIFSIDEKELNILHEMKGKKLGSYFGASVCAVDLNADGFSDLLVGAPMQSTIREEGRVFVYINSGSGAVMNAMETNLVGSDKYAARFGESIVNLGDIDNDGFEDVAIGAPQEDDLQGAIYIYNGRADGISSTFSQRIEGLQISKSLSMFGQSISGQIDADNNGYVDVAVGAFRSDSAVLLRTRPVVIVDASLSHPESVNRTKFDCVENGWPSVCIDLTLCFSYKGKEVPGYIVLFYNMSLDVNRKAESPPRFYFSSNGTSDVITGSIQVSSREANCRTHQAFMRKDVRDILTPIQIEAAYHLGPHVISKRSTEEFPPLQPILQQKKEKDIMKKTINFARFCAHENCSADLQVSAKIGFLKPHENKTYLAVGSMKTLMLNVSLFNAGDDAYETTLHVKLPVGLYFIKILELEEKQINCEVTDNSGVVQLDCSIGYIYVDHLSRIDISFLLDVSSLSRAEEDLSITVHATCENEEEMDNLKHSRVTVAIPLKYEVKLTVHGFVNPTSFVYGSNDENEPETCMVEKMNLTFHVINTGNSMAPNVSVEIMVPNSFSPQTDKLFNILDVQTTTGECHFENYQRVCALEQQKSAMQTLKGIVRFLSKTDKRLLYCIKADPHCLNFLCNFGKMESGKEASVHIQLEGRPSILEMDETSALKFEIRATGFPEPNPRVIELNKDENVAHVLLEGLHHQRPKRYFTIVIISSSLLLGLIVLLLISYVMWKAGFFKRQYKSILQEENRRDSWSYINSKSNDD
T1 sequence (P05556 21-798): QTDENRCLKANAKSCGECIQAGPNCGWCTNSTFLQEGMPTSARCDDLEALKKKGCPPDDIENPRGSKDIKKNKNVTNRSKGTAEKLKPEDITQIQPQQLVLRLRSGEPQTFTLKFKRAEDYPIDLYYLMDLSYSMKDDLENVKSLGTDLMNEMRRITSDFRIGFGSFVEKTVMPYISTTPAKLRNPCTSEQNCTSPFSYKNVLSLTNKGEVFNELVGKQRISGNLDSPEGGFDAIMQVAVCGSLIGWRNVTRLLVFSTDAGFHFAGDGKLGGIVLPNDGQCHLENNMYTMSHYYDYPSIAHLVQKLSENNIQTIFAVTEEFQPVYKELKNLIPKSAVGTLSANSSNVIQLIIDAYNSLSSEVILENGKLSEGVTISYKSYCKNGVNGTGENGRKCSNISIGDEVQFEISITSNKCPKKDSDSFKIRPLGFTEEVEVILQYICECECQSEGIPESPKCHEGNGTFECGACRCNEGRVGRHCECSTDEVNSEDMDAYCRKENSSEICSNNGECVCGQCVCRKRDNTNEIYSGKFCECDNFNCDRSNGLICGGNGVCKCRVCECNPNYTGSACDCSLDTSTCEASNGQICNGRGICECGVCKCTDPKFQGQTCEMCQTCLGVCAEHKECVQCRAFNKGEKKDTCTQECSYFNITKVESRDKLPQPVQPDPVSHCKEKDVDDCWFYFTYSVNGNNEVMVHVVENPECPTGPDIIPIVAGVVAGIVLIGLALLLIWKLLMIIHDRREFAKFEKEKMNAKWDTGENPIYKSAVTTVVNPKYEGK

Molecule	IC50, Cell Adhesion to Human Plasma Fibronectin (With Human Serum) (α4β1 Integrin; with human serum)	IC50, Cell Adhesion to Human Plasma Fibronectin (Without the Human Serum) (α4β1 Integrin; without human serum)	AUC (average AUC 0→12 h) [1]	IC50 (α4β1 Integrin; [2])	IC50 (α4β1 Integrin; [3])
2-{2-diethylamino-5-[(2-fluorobenzenesulfonyl)methylamino]pyrimidin-4-ylamino}-3-(4-dimethylcarbamoyloxyphenyl)propionic acid [Example 6]	0.3138 µg/mL	0.000511 µg/mL	0.6538 (μg/mL)h	–	–
2-{2-diethylamino-5-[(3,4-difluorobenzenesulfonyl) ethylamino]pyrimidin-4-ylamino}-3-(4-dimethylcarbamoyloxyphenyl) propionic acid [Example 12]	0.06 µg/mL	0.003 µg/mL	0.8447 (μg/mL)h	–	–
2-{2-diethylamino-5-[(4-chlorobenzenesulfonyl)ethylamino] pyrimidin-4-ylamino}-3-(4-dimethylcarbamoyloxyphenyl)propionic acid [Example 13]	0.075 µg/mL	0.004 µg/mL	1.5806 (μg/mL)h	–	–
2-{2-diethylamino-5-[(4-chlorobenzenesulfonyl)methylamino]pyrimidin-4-ylamino}-3-(4-dimethylcarbamoyloxyphenyl)propionic acid [Example 2]	0.317 µg/mL	0.002 µg/mL	1.8689 (μg/mL)h	–	–
2-{2-diethylamino-5-[(4-fluorobenzenesulfonyl)allylamino]pyrimidin-4-ylamino}-3-(4-dimethylcarbamoyloxyphenyl)propionic acid [Example 22]	0.02529 µg/mL	0.001506 µg/mL	0.6297 (μg/mL)h	–	–
2-{2-diethylamino-5-[(4-fluorobenzenesulfonyl)ethylamino]pyrimidin-4-ylamino}-3-(4-dimethylcarbamoyloxyphenyl)propionic acid [Example 9]	0.106 µg/mL	0.001 µg/mL	1.564 (μg/mL)h	–	–
2-{2-diethylamino-5-[(4-fluorobenzenesulfonyl)methylamino]pyrimidin-4-ylamino}-3-(4-dimethylcarbamoyloxyphenyl)propionic acid [Example 1]	0.318 µg/mL	0.002 µg/mL	2.3308 (μg/mL)h	–	–
2-{2-diethylamino-5-[(benzenesulfonyl)methylamino]pyrimidin-4-ylamino}-3-(4-dimethylcarbamoyloxyphenyl)propionic acid [Example 5]	1.851 µg/mL	0.001414 µg/mL	0.9577 (μg/mL)h	–	–
CCN(CC)c1ncc(N(C)S(=O)(=O)c2ccc(F)c(F)c2)c(N[C@@H](Cc2ccc(OC(=O)N(C)C)cc2)C(=O)O)n1 [Example 3]	–	–	1.5483 (μg/mL)h	251 nM	3.3 nM
CCN(CC)c1ncc(N(C)S(=O)(=O)c2ccc(Cl)c(Cl)c2)c(N[C@@H](Cc2ccc(OC(=O)N(C)C)cc2)C(=O)O)n1 [Example 4]	–	–	0.5965 (μg/mL)h	625 nM	6.25 nM
CCN(CC)c1ncc(N(C)S(=O)(=O)c2cccc(F)c2)c(N[C@@H](Cc2ccc(OC(=O)N(C)C)cc2)C(=O)O)n1 [Example 7, 2-{2-diethylamino-5-[(3-fluorobenzenesulfonyl)methylaminol]pyrimidin-4-ylamino}-3-(4-dimethylcarbamoyloxyphenyl) propionic acid]	–	–	0.717 (μg/mL)h	997 nM	1.39 nM
CCN(CC)c1ncc(N(C(C)C)S(=O)(=O)c2ccc(F)cc2)c(N[C@@H](Cc2ccc(OC(=O)N(C)C)cc2)C(=O)O)n1 [Example 8]	–	–	0.5088 (μg/mL)h	264 nM	4.87 nM
CCN(CC)c1ncc(N(C(C)C)S(=O)(=O)c2ccc(F)c(F)c2)c(NC(Cc2ccc(OC(=O)N(C)C)cc2)C(=O)O)n1 (stereo not drawn) [Example 10, 2-{2-diethylamino-5-[(3,4-difluorobenzenesulfonyl)isopropylamino]pyrimidin-4-ylamino}-3-(4-dimethylcarbamoyloxyphenyl) propionic acid]	–	–	0.1215 (μg/mL)h	404 nM	7.33 nM
